melting point: 172 to 176 °C
Compound: COc1cc(N2CCN([C@H](C)c3ccc(OC)c(OC)c3)CC2)ccc1Cl [compound 4, (R)-1-(4-Chloro-3-Methoxy-Phenyl)-4-[1-(3,4-Dimethoxy-Phenyl)-Ethyl]-Piperazine]
